According to patent US8178530B2, “Imidazolopyrazine compounds useful for the treatment of degenerative and inflammatory diseases” (Janssen Pharmaceutica NV, priority 2006, dated 2012):

Assays:
[1] = tested on: MMP1 expression by SFs; assay: 'MMP assay': MMP1 expression by 'complex trigger' activated synovial fibroblasts (MMP1 ELISA); assay type: cell-based, human; settings: Homo sapiens, Fibroblast, RASFs, 48 hrs
Description: A 384-well format ELISA for measurement of MMP1 is developed. Various primary antibodies are tested, as well as various ELISA protocols. The following protocol is developed and validated to measure MMP1 levels in SF supernatant in 384 well plates: white Lumitrac 600 384 well plates (Greiner) are coated with 2 μg/mL anti-MMP1 antibody MAB1346 (Chemicon). The antibody is diluted in buffer 40 (1.21 g Tris base (Sigma), 0.58 g NaCl (Calbiochem) and 5 ml 10% NaN3 (Sigma) in 1 L milliQ water and adjusted to pH 8.5). After overnight incubation at 4° C., plates are washed with PBS (80 g NaCl, 2 g KCl (Sigma), 11.5 g Na2HPO4.7H2O and 2 g KH2PO4 in 10 L milliQ; pH 7.4) and blocked with 100 μL/well Casein buffer (2% Casein (VWR International) in PBS). Next day, casein buffer is removed from ELISA plates and replaced by 50 μL/well EC buffer (4 g casein, 2.13 g Na2HPO4 (Sigma), 2 g bovine albumin (Sigma), 0.69 g NaH2PO4.H2O (Sigma), 0.5 g CHAPS (Roche), 23.3 g NaCl, 4 mL 0.5 M EDTA pH 8 (Invitrogen), 5 mL 10% NaN3 in 1 L milliQ and adjusted to pH 7.0). 0.25 mM DTT (Sigma) is added to the thawed samples plates. After removal of the EC buffer, 20 μL of sample is transferred to the ELISA plates. After overnight incubation at 4° C. plates are washed twice with PBS and once with PBST (PBS with 0.05% Tween-20 (Sigma)) and incubated with 35 μL/well biotinylated anti-MMP1 antibody solution (R&D). This secondary antibody is diluted in buffer C (0.82 g NaH2PO4.H2O, 4.82 g Na2HPO4, 46.6 g NaCl, 20 g bovine albumin and 4 mL 0.5M EDTA pH 8 in 2 L milliQ and adjusted to pH 7.0) at a concentration of 5 μg/mL. After 2 h of incubation at RT, plates are washed as described above and incubated with 50 μL/well streptavidin-HRP conjugate (Biosource). Streptavidin-HRP conjugate is diluted in buffer C at a concentration of 0.25 μg/mL. After 45 min, plates are washed as described above and incubated for 5 min with 50 μL/well BM Chem ELISA Substrate (Roche). Readout is performed on the Luminoscan Ascent Luminometer (Labsystems) with an integration time of 200 msec or with an Envision reader (Perkin Elmer).
The increase of MMP1 expression by SFs upon treatment with cytokines relevant in the field of RA (TNF-α, IL1β and OSM) or a combination thereof is shown in FIG. 2 as white bars. For this experiment, SFs are seeded in 96 well plates, 3,000 cells/well. 24 h later, the medium is changed to M199 medium supplemented with 1% FBS. One day after the medium change, cytokines or combinations thereof are added to the cultures, each cytokine being added to a final concentration of 25 ng/mL. 72 h after cytokine addition, the supernatant is collected and processed in the MMP1 ELISA as described in the protocol given above. In parallel with this experiment, SFs are triggered, using the same protocol, with the supernatant of THP1 cells (2-fold diluted in M199+1% FBS) treated with the same cytokines or combinations of cytokines for 48 h in M199 medium+1% FBS. The induction of the MMP1 expression by SFs triggered with the supernatants of TNF-α-treated THP1 cells is stronger (>4.5 fold induction) as compared to the SFs triggered with recombinant TNF-α alone (3-fold induction) and almost equals the 5-fold induction obtained by a mixture of 3 purified cytokines (TNF-α, IL1βb, OSM). […] As the role of TNF-α in the RA pathogenesis is validated (TNF-α-blockers such as Infliximab and Etanercept show some efficacy in the treatment of RA patients) and the THP-1 cells are representative for monocytes/macrophages present in the joint of RA patients, the TNF-α-based trigger mixture prepared by contacting THP-1 cells with TNF-α will contain factors present in the joints of RA patients and subsequently is relevant to RA. This TNF-α-based complex trigger, further referred to as the ‘complex trigger’, will further be used as basis for the ‘MMP assay’.
Dexamethasone is shown to dose-dependently reduce amounts of MMP1 produced by complex trigger activated SFs. […]

[2] = target: T1, MAPKAPK5 (Homo sapiens, UniProt Q8IW41); assay: MAPKAP-K5 assay (FlashPlate, 33P-ATP); assay type: biochemical; settings: 0.6 μM ATP, 30 minutes at room temperature
T1 construct: 1 mU MAPKAP-K5
T1 sequence (Q8IW41 1-473): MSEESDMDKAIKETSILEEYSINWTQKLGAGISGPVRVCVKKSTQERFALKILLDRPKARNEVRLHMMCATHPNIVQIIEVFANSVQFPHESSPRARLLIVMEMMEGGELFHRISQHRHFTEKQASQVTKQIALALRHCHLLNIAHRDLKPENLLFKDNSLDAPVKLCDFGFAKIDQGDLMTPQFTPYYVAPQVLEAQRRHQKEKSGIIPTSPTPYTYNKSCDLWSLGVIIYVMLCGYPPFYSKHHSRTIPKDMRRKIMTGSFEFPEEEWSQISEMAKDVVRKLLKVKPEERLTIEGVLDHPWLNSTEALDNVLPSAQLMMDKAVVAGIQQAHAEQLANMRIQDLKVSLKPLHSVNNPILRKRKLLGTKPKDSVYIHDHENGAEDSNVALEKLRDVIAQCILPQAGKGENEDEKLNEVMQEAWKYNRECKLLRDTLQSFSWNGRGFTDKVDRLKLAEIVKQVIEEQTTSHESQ
Description: 3 μM MAPKAP-K5 peptide substrate

IC50 [2] | SMILES | EC50 [1]
> 1000 nM | NC(=O)c1ccc(-c2cnc(Nc3ccc(C(=O)NCCO)cc3)c3nccn23)cc1 [Compound 49] | > 1000 nM
> 1000 nM | CCN(CC)CCNC(=O)c1cccc(Nc2ncc(-c3cn[nH]c3)n3ccnc23)c1 [Compound 50] | > 1000 nM
> 1000 nM | O=C(O)c1cccc(Nc2ncc(-c3cn[nH]c3)n3ccnc23)c1 [Compound 51] | > 1000 nM
> 1000 nM | NC(=O)c1ccc(Nc2ncc(-c3ccc(C(=O)O)cc3)n3ccnc23)cc1 [Compound 52] | > 1000 nM
> 1000 nM | O=C(O)c1ccc(-c2cnc(Nc3ccc(C(=O)NCCN4CCOCC4)cc3)c3nccn23)cc1 [Compound 54] | > 1000 nM
101 to 500 nM | CN1CCN(C(=O)c2ccc(Nc3ncc(-c4cn[nH]c4)n4ccnc34)cc2)CC1 [Compound 57] | > 1000 nM
> 1000 nM | CCN(CC)CCNC(=O)c1ccc(Nc2ncc(-c3cn[nH]c3)n3ccnc23)c(C)c1 [Compound 58] | > 1000 nM
> 1000 nM | CCN(CC)CCNC(=O)c1ccc(Nc2ncc(-c3cn[nH]c3)n3cc(C)nc23)cc1 [Compound 59] | > 1000 nM
> 1000 nM | CCN(CC)CCNC(=O)c1ccc(Nc2ncc(-c3ccc(-c4nn[nH]n4)cc3)n3ccnc23)cc1 [Compound 60] | > 1000 nM
501 to 1000 nM | O=C(NCCO)c1ccc(Nc2ncc(-c3cn[nH]c3)n3ccnc23)cc1 [Compound 61] | > 1000 nM
> 1000 nM | c1cn2c(-c3nn[nH]n3)cnc(Nc3ccc(N4CCOCC4)cc3)c2n1 [Compound 62] | > 1000 nM
> 1000 nM | O=C(O)c1cnc(Nc2ccc(N3CCOCC3)cc2)c2nccn12 [Compound 63] | > 1000 nM
> 1000 nM | CCN(CC)CCNC(=O)c1ccc(Nc2ncc(-c3ccc(O)c(OC)c3)n3ccnc23)cc1 [Compound 65] | > 1000 nM
> 1000 nM | NC(=O)c1cnc(Nc2ccc(N3CCOCC3)cc2)c2nccn12 [Compound 66] | > 1000 nM
> 1000 nM | c1cn2c(-c3cn[nH]n3)cnc(Nc3ccc(N4CCOCC4)cc3)c2n1 [Compound 67] | > 1000 nM
> 1000 nM | CCN(CC)CCNC(=O)c1ccc(Nc2ncc(-c3nn[nH]n3)n3ccnc23)cc1 [Compound 68] | > 1000 nM
> 1000 nM | CN1CCN(S(=O)(=O)c2ccc(Nc3ncc(-c4cn[nH]c4)n4ccnc34)cc2)CC1 [Compound 70] | > 1000 nM
> 1000 nM | CCN(CC)CCNC(=O)c1ccc(Nc2ncc(-c3cccnc3)n3ccnc23)cc1 [Compound 72] | > 1000 nM
> 1000 nM | CCN(CC)CCNC(=O)c1ccc(Nc2ncc(-c3ccsc3)n3ccnc23)cc1 [Compound 73] | > 1000 nM
> 1000 nM | CCN(CC)CCNC(=O)c1ccc(Nc2ncc(-c3ccoc3)n3ccnc23)cc1 [Compound 74] | > 1000 nM
> 1000 nM | CCN(CC)CCNC(=O)c1ccc(Nc2ncc(-c3ccc(O)cc3C(F)(F)F)n3ccnc23)cc1 [Compound 75] | > 1000 nM

IC50 [2] | SMILES | EC50 [1]
> 1000 nM | CCN(CC)CCNC(=O)c1ccc(Nc2ncc(-c3ccc(CC(=O)O)cc3)n3ccnc23)cc1 [Compound 76] | > 1000 nM
> 1000 nM | CCN(CC)CCNC(=O)c1ccc(Nc2ncc(-c3cncc4ccccc34)n3ccnc23)cc1 [Compound 77] | > 1000 nM
> 1000 nM | CCN(CC)CCNC(=O)c1ccc(Nc2ncc(-c3cccs3)n3ccnc23)cc1 [Compound 78] | > 1000 nM
> 1000 nM | CCN(CC)CCNC(=O)c1ccc(Nc2ncc(-c3ccc(S(C)(=O)=O)cc3)n3ccnc23)cc1 [Compound 79] | > 1000 nM
> 1000 nM | CCN(CC)CCNC(=O)c1ccc(Nc2ncc(-c3cnc(O)nc3O)n3ccnc23)cc1 [Compound 80] | > 1000 nM
> 1000 nM | CCN(CC)CCNC(=O)c1ccc(Nc2ncc(-c3c(C)n[nH]c3C)n3ccnc23)cc1 [Compound 81] | > 1000 nM
501 to 1000 nM | CCN(CC)CCNC(=O)c1ccc(Nc2ncc(-c3cn[nH]n3)n3ccnc23)cc1 [Compound 84] | > 1000 nM
> 1000 nM | CCN(CC)CCNC(=O)c1ccc(Nc2ncc(-c3ccncc3)n3ccnc23)cc1 [Compound 86] | > 1000 nM
> 1000 nM | CCN(CC)CCNC(=O)c1ccc(Nc2ncc(-c3cncnc3)n3ccnc23)cc1 [Compound 87] | > 1000 nM
> 1000 nM | CCN(CC)CCNC(=O)c1ccc(Nc2ncc(-c3ccnn3C)n3ccnc23)cc1 [Compound 88] | > 1000 nM
> 1000 nM | c1cn2c(-c3nc[nH]n3)cnc(Nc3ccc(N4CCOCC4)cc3)c2n1 [Compound 91] | > 1000 nM
> 1000 nM | Cc1cn2c(-c3cn[nH]c3)cnc(Nc3ccc(C(N)=O)cc3)c2n1 [Compound 92] | > 1000 nM
501 to 1000 nM | O=C(NCCc1c[nH]c2ccccc12)c1ccc(Nc2ncc(-c3cn[nH]c3)n3ccnc23)cc1 [Compound 94] | > 1000 nM
> 1000 nM | NCc1cccc(CNC(=O)c2ccc(Nc3ncc(-c4cn[nH]c4)n4ccnc34)cc2)c1 [Compound 95] | 101 to 500 nM
> 1000 nM | NC(=O)c1ccc(-c2cnc(Nc3cccnc3)c3nccn23)cc1 [Compound 96] | > 1000 nM
> 1000 nM | CS(=O)(=O)c1ccc(Nc2ncc(-c3ccc(C(N)=O)cc3)n3ccnc23)cc1 [Compound 97, 4-[8-(4-Methanesulfonyl-phenylamino)-imidazo[1,2-a]pyrazin-5-yl]-benzamide] | > 1000 nM
101 to 500 nM | CCN(CC)CCNC(=O)c1ccc(Nc2ncc(-c3cc[nH]c(=O)c3)n3ccnc23)cc1 [Compound 99] | > 1000 nM
> 1000 nM | Cc1nc(-c2cnc(Nc3ccc(N4CCOCC4)cc3)c3nccn23)n[nH]1 [Compound 100] | > 1000 nM
> 1000 nM | CCN(CC)CCNC(=O)c1ccc(Nc2ncc(C#N)n3ccnc23)cc1 [Compound 101] | > 1000 nM
501 to 1000 nM | CCN(CC)CCNC(=O)c1ccc(Nc2ncc(-c3cn[nH]c3)n3ccnc23)cn1 [Compound 103, 5-[5-(1H-Pyrazol-4-yl)-imidazo[1,2-a]pyrazin-8-ylamino]-pyridine-2-carboxylic acid (2-diethylamino-ethyl)-amide] | > 1000 nM
